{
  "source": "paper PMC10969504",
  "about": "(2024)",
  "tested_on": "ENR-Apt 6 (DNA, aptamer) GCGGCTGCTTACGGATAGAAGGCGGATGGAGAAATGAACCGGGGTGGTCCGTTGTCCATCCGTAAAGCCCAAGTC",
  "assay": "graphene oxide fluorescence quenching/recovery, aptamer titrated",
  "conditions": "aptamer 25-200 nM in ultrapure water; 20 μg/mL GO; 250 μM ENR solution added (1:1:1 v/v); apparent",
  "data": [
    {"smiles": "CCN1CCN(c2cc3c(cc2F)c(=O)c(C(=O)O)cn3C2CC2)CC1", "values": [
      {"measurement": "Kd", "value": 35.08, "unit": "nM"}
    ]}
  ]
}
